Reference: patent US12509451B2, “Heteroaryl amide inhibitors of CD38” (NAPA THERAPEUTICS LTD., priority 2020, dated 2025)
Each block holds one compound with its values, some of them ahead of it.

Key:
[1] = molecular target: T1, CD38 (Mus musculus, UniProt P56528); experiment: In vivo efficacy against CD38 in aged mice, single oral dose, liver NAD+ metabolites
T1 construct: aged mice (male C57BL6/J, 22 months old) were fasted for 4 hr; from tissue; host or cells: C57BL6/J mice (aged, DIO obese or LPS-challenged); liver, spleen, plasma
T1 sequence (P56528 1-304): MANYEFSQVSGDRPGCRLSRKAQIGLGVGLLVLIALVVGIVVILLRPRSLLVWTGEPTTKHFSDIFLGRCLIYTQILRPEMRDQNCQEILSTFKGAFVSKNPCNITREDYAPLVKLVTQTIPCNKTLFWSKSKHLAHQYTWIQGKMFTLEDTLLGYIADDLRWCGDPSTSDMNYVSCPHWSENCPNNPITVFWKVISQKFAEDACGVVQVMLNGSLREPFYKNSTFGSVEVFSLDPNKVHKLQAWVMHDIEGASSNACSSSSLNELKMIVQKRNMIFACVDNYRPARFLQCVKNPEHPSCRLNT
Procedure: The in vivo efficacy of Compound 35 against the human CD38 enzyme was tested in aged mice after oral administration and determined by mass spec analysis of NAD+ metabolites levels in liver tissue. The two main CD38 substrates, NAD+ and NMN, and the 2 main byproducts of the CD38 enzymatic reaction, NAM and ADPR, were measured.
Briefly, aged mice (male C57BL6/J, 22 months old) were fasted for 4 hr and compound 35 was administered via oral gavage at a concentration of 3 mg/kg and 10 mg/kg. Mice were humanely euthanized for liver tissue harvesting at 1-, 3-, and 6-hr post-dosing. A vehicle control (DMSO:Solutol: SBE-CD, 2:5:93, v/v) was included to assess baseline NAD+ metabolites levels.
The procedure for tissue sample preparation and UPLC-MS/MS methods were adapted from Trammell et al. (2013) Compu. Struct. Biotechnol. J. […] (https://www.ncbi.nlm.nih.gov/pmc/articles/PMC3962138/). Briefly, frozen liver tissue was pulverized and resuspended in the extraction buffer (3:1 ethanol:10 mM aq. HEPES, pH 7.1). The samples were vortexed, sonicated briefly in a bath sonicator, and shaken at 55° C. for 3 min at 1,200 rpm. Samples were then centrifuged at 16,000×g for 10 min at 4° C., and the supernatant was dried by speedvac. The dried pellet was resuspended in 97% 10 mM ammonium acetate/3% acetonitrile, centrifuged at 16,000×g for 10 min at 4° C. and 2 μL was injected for LCMS analysis.
The UPLC-MS/MS analysis to measure NAD+ metabolites was performed using a Vanquish UHPLC system and a Q Exactive Orbitrap mass spectrometer with H-ESI ion source both from Thermo Scientific. UPLC separation was performed on a Hypercarb (2.1×100 mm, 5 μm particle size, Thermo) column following the method described in Trammell et al. (2013). Acquisition was carried out in positive ion, Parallel Reaction Monitoring (PRM) mode and targeted […] (t-SIM). The Thermo Xcalibur QualBrowser system software (version 4.2.47) and Freestyle (version 1.8.51.0) softwares was used for the data processing. For relative fold change, peak areas were normalized with respective internal standards, normalized to weight of the tissue sample used, and calculated as fold change relative at 0 h timepoint/vehicle group.

[2] = molecular target: T1, CD38; experiment: LPS-induced inflammation in mice, MS analysis of NAD+ metabolism in spleen and liver; type: in vivo
Procedure: (§1) The in vivo efficacy of Compound 39 against the human CD38 enzyme after LPS challenge was assessed. The effects of Compound 39 (10 mg/kg and 30 mg/kg) on inflammato cytokines, inflammation markers and NAD+ levels at 4 h and 8 h points after LPS-induced inflammation in 12 weeks old male C57BL/6J mice were evaluated.
(§2) Animals were euthanized by terminal cardiac blood puncture immediately after terminal CO2, 4 h and 8 h after LPS administration. At necropsy, the tissues (Liver, Plasma, Spleen, Kidney, Lungs, Heart, Visceral Adipose Tissue, Muscle-Gastrocnemius) were collected and quick frozen in liquid nitrogen. The blood was collected in a BD Microtainer® K2EDTA Additive Tube, centrifuge at 1000 g for 10 min at 4° C. and plasma was store at −80° C.).

[3] = molecular target: T1, CD38; experiment: LPS-induced inflammation in mice, cytokines quantification in plasma; type: in vivo
Procedure: as §1, §2

[4] = molecular target: T1, CD38; experiment: LPS-induced inflammation in mice, gene expression analysis in spleen and liver; type: in vivo
[5] = 30 mg/kg, 8 hours post LPS challenge
[6] = 4 hour post LPS challenge, 10 mg/kg
[7] = 4 hour post LPS challenge, 30 mg/kg
[8] = 8 h post LPS challenge, 10 mg/kg and 30 mg/kg

ADPR levels in liver ([1]; single 3 mg/kg oral dose): decrease
NAD+ levels in liver ([1]; single 3 mg/kg oral dose): increase
NAM levels in liver ([1]; single 3 mg/kg oral dose): decrease
NMN levels in liver ([1]; single 3 mg/kg oral dose): increase
ADPR levels in liver ([1]; single 10 mg/kg oral dose): decrease
NAD+ levels in liver ([1]; single 10 mg/kg oral dose): increase
NAM levels in liver ([1]; single 10 mg/kg oral dose): decrease
NMN levels in liver ([1]; single 10 mg/kg oral dose): increase
Compound: COc1cc(C(=O)Nc2ccnc(C(F)(F)F)c2)nc(-n2ccnc2)c1 [Compound 35, 6-(1H-imidazol-1-yl)-4-methoxy-N-(2-(trifluoromethyl)pyridin-4-yl)picolinamide]

increase of NAD+ levels in liver ([2]; 10 mg/kg, 8 hours post LPS challenge): 2 fold
decrease of NAM levels in liver [2, 5]: 38%
increase of NAD+ levels in spleen [2, 5]: 2.3 fold
decrease in ADPR levels in spleen ([2]; 30 mg/kg, 8 h treatment): 40%
ADPR levels in liver ([2]; treatment arms, 4 hours post LPS challenge): decrease
decrease of plasma IL-6 [3, 6]: 43%
decrease of plasma TNFα [3, 6]: 22%
plasma IP-10 ([3]; 4 hour post LPS challenge, 10 mg/kg and 30 mg/kg): statistically significant decrease
decrease of plasma IL-6 [3, 7]: 75%
decrease of plasma TNFα [3, 7]: 58%
plasma IL-6 [3, 8]: statistically significant decrease
plasma IP-10 [3, 8]: statistically significant decrease
plasma TNFα [3, 8]: statistically significant decrease
CD38 expression in liver ([4]; liver, 10 mg/kg and 30 mg/kg, 8 hour post LPS challenge): statistically significant decrease
IFNγ expression levels in liver ([4]; liver, after LPS challenge): statistically significant decrease
IL-1β expression levels in liver ([4]; liver, after LPS challenge): statistically significant decrease
IL-6 expression levels in liver ([4]; liver, after LPS challenge): statistically significant decrease
IP-10 expression levels in liver ([4]; liver, after LPS challenge): statistically significant decrease
MCP1 expression levels in liver ([4]; liver, after LPS challenge): statistically significant decrease
MIP1α expression levels in liver ([4]; liver, after LPS challenge): statistically significant decrease
MIP2 expression levels in liver ([4]; liver, after LPS challenge): statistically significant decrease
RANTES expression levels in liver ([4]; liver, after LPS challenge): statistically significant decrease
TNFα expression levels in liver ([4]; liver, after LPS challenge): statistically significant decrease
CD38 expression in spleen ([4]; spleen, after LPS challenge): no significant changes
IFNγ expression levels in spleen ([4]; spleen, after LPS challenge): statistically significant decrease
IL-1β expression levels in spleen ([4]; spleen, after LPS challenge): statistically significant decrease
IL-6 expression levels in spleen ([4]; spleen, after LPS challenge): statistically significant decrease
IP-10 expression levels in spleen ([4]; spleen, after LPS challenge): statistically significant decrease
MCP1 expression levels in spleen ([4]; spleen, after LPS challenge): statistically significant decrease
MIP1α expression levels in spleen ([4]; spleen, after LPS challenge): statistically significant decrease
MIP2 expression levels in spleen ([4]; spleen, after LPS challenge): statistically significant decrease
RANTES expression levels in spleen ([4]; spleen, after LPS challenge): statistically significant decrease
TNFα expression levels in spleen ([4]; spleen, after LPS challenge): statistically significant decrease
Compound: COCCOc1cc(C(=O)Nc2ccnc(C(F)(F)F)c2)nc(-n2ccnc2)n1 [Compound 39, 2-(1H-imidazol-1-yl)-6-(2-methoxyethoxy)-N-(2-(trifluoromethyl)pyridin-4-yl)pyrimidine-4-carboxamide]
